For one compound, IC50 results are on record in ChEMBL document CHEMBL1154992, “New steroidal glycosides from the fruits of Tribulus terrestris” (J Nat Prod, 2000).

The experiment has as its system SK-MEL. Put plainly: Cytotoxicity against human SK-MEL cells after 48 hrs by neutral red staining. The class given is functional, cell-based.

Converted amounts (≈) assume the structure as drawn.

In general, IC50 refers to the point on the concentration scale where inhibition reaches its midpoint. A low value points to inhibition by little substance. With `C[C@H]1CC[C@@]2(OC1)O[C@H]1C[C@H]3[C@@H]4CC[C@@H]5C[C@@H](O[C@@H]6O[C@H](CO)[C@H](O[C@@H]7O[C@H](CO)[C@@H](O)[C@H](O)[C@H]7O)[C@H](O)[C@H]6O[C@@H]6O[C@@H](C)[C@H](O)[C@@H](O)[C@H]6O)CC[C@]5(C)[C@H]4CC[C@]3(C)[C@H]1[C@@H]2C`, it took 6.7 µg/mL (≈ 7.55 µM) to reach half-maximal inhibition (IC50).
